Measurements taken from ChEMBL document CHEMBL5113477, “Membrane acting Povarov-Doebner derived compounds potently disperse preformed multidrug resistant Gram-positive bacterial biofilms” (Eur J Med Chem, 2022).
Converted amounts (≈) assume the structure as drawn. The source made the active and inactive calls. The rule behind the calls is not given here.

How the values were obtained:
Enterococcus faecalis [1] = assay: (§1) Antibiofilm activity against vancomycin-resistant Enterococcus faecalis ATCC 51575 in TSB broth assessed as dispersal of glucose-induced biofilm at 8 to 16 ug/ml preincubated with glucose for 48 hrs followed by compound addition and measured after 24 hrs by crystal violet staining based analysis; assay type: functional; settings: dose 8-16 µg/ml, at 8 to 16 µg/mL
Enterococcus faecalis [2] = assay: as §1, with “Synergistic antibiofilm” for “Antibiofilm”, “by measuring Bithionol MBEC” for “at 8 to 16 ug/ml”, “checkerboard assay” for “analysis”; assay type: functional
Staphylococcus aureus [3] = assay: Bactericidal activity against persister methicillin-resistant Staphylococcus aureus USA 300 at 1 times MIC incubated for 4 hrs by time kill assay; assay type: functional
Staphylococcus aureus [4] = assay: (§2) Synergistic antibiofilm activity against methicillin-resistant Staphylococcus aureus USA 300 in TSB broth assessed as dispersal of glucose-induced biofilm at 2 ug/ml preincubated with glucose for 48 hrs followed by compound addition and further incubated for 24 hrs in presence of 0.5 ug/ml Bithionol and AgNO3 by crystal violet staining based analysis; assay type: functional; settings: dose 2 µg/ml
Enterococcus faecium [5] = assay: Inhibition of biofilm formation in vancomycin-resistant Enterococcus faecium ATCC 700221 in TSB broth at 0.0078 to 4 ug/ml incubated for 48 hrs in presence of glucose by crystal violet staining based analysis; assay type: functional, organism-based; settings: dose 0.0078-4 µg/ml
Enterococcus faecium [6] = assay: Antibiofilm activity against vancomycin-resistant Enterococcus faecium ATCC 700221 in TSB broth assessed as dispersal of glucose-induced biofilm at 8 to 16 ug/ml preincubated with glucose for 48 hrs followed by compound addition and measured after 24 hrs by crystal violet staining based analysis; assay type: functional; settings: dose 8-16 µg/ml, at 8 to 16 µg/mL
Staphylococcus aureus [7] = assay: Antibacterial activity against Staphylococcus aureus ATCC 25923 assessed as reduction in visible bacterial growth incubated for 18 to 20 hrs by CLSI based broth microdilution analysis; assay type: functional; settings: time 18-20 hrs
Staphylococcus aureus [8] = assay: as §2, with “biofilm” for “biofilm at 2 ug/ml”, “Nitroxoline” for “0.5 ug/ml Bithionol and AgNO3”, “checkerboard assay” for “analysis”; assay type: functional
Enterococcus faecium [9] = assay: (§3) Synergistic antibiofilm activity against vancomycin-resistant Enterococcus faecium ATCC 700221 in TSB broth assessed as dispersal of glucose-induced biofilm preincubated with glucose for 48 hrs followed by compound addition and further incubated for 24 hrs in presence of Nitroxoline by crystal violet staining based checkerboard assay; assay type: functional
Staphylococcus aureus [10] = assay: as §2, with “at 4” for “at 2”, “of” for “of 0.5 ug/ml”, “Bithionol” for “Bithionol and AgNO3”, “based assay” for “based analysis”; assay type: functional; settings: dose 4 µg/ml
Enterococcus faecalis [11] = assay: Inhibition of biofilm formation in vancomycin-resistant Enterococcus faecalis ATCC 51575 in TSB broth at 0.0078 to 4 ug/ml incubated for 48 hrs in presence of glucose by crystal violet staining based analysis; assay type: functional, organism-based; settings: dose 0.0078-4 µg/ml
Enterococcus faecium [12] = assay: Antibiofilm activity against vancomycin-resistant Enterococcus faecium ATCC 700221 in TSB broth assessed as dispersal of glucose-induced biofilm preincubated with glucose for 48 hrs followed by compound addition and measured after 24 hrs by crystal violet staining based analysis; assay type: functional
Staphylococcus aureus [13] = assay: Inhibition of DNA synthesis in Staphylococcus aureus ATCC 25923 at 0.25 to 8 ug/ml by [methyl]-thymidine incorporation assay; assay type: functional, organism-based; settings: dose 0.25-8 µg/ml
Enterococcus faecalis [14] = assay: Synergistic antibiofilm activity against vancomycin-resistant Enterococcus faecalis ATCC 51575 in TSB broth assessed as dispersal of glucose-induced biofilm by measuring Nitroxoline MBEC preincubated with glucose for 48 hrs followed by compound addition and measured after 24 hrs by crystal violet staining based checkerboard assay; assay type: functional
Staphylococcus aureus [15] = assay: Antibacterial activity against methicillin-resistant Staphylococcus aureus USA 300 (ARLG 1644) assessed as reduction in visible bacterial growth incubated for 18 to 20 hrs by CLSI based broth microdilution analysis; assay type: functional; settings: time 18-20 hrs
Staphylococcus aureus [16] = assay: as §2, with “by measuring fractional inhibitory concentration index” for “at 2 ug/ml”, “Nitroxoline” for “0.5 ug/ml Bithionol and AgNO3”, “checkerboard assay” for “analysis”; assay type: functional
Enterococcus faecium [17] = assay: as §3, with “Bithionol” for “Nitroxoline”; assay type: functional
Enterococcus faecalis [18] = assay: Antibacterial activity against vancomycin-resistant Enterococcus faecalis ATCC 51575 assessed as reduction in visible bacterial growth incubated for 18 to 20 hrs by CLSI based broth microdilution analysis; assay type: functional; settings: time 18-20 hrs
Staphylococcus aureus [19] = assay: Antibacterial activity against methicillin-resistant Staphylococcus aureus USA 300 (ARLG 1567) assessed as reduction in visible bacterial growth incubated for 18 to 20 hrs by CLSI based broth microdilution analysis; assay type: functional; settings: time 18-20 hrs
Enterococcus faecalis [20] = assay: Antibacterial activity against Enterococcus faecalis ATCC 29212 assessed as reduction in visible bacterial growth incubated for 18 to 20 hrs by CLSI based broth microdilution analysis; assay type: functional; settings: time 18-20 hrs
Staphylococcus aureus [21] = assay: Antibacterial activity against methicillin-resistant Staphylococcus aureus USA 300 (ARLG 1568) assessed as reduction in visible bacterial growth incubated for 18 to 20 hrs by CLSI based broth microdilution analysis; assay type: functional; settings: time 18-20 hrs
Enterococcus faecium [22] = assay: Synergistic antibiofilm activity against vancomycin-resistant Enterococcus faecium ATCC 700221 in TSB broth assessed as dispersal of glucose-induced biofilm at 1 ug/ml preincubated with glucose for 48 hrs followed by compound addition and further incubated for 24 hrs in presence of 1 ug/ml Bithionol and AgNO3 by crystal violet staining based analysis; assay type: functional; settings: dose 1 µg/ml
Enterococcus faecium [23] = assay: as §3, with “glucose-induced biofilm by measuring fractional inhibitory concentration index preincubated with” for “glucose-induced biofilm preincubated with”; assay type: functional
Staphylococcus aureus [24] = assay: Bactericidal activity against persister methicillin-resistant Staphylococcus aureus USA 300 at 1 times MIC incubated for 2 to 8 hrs by time kill assay; assay type: functional, organism-based; settings: time 2-8 hrs
Cell membrane [25] = assay: Induction of membrane depolarization in Staphylococcus aureus ATCC 25923 at 2 ug/ml incubated for 1 hr by DiOC23 dye based flow cytometry analysis; assay type: subcellular; settings: dose 2.0 µg/ml
Staphylococcus aureus [26] = assay: Inhibition of cell wall synthesis in Staphylococcus aureus ATCC 25923 at 0.25 to 8 ug/ml by [glucosamine-6-3H]-N-acetyl-D-glucosamine incorporation assay; assay type: functional, organism-based; settings: dose 0.25-8 µg/ml
Staphylococcus aureus [27] = assay: Antibiofilm activity against methicillin-resistant Staphylococcus aureus USA 300 in TSB broth assessed as dispersal of glucose-induced biofilm preincubated with glucose for 48 hrs followed by compound addition and measured after 24 hrs by crystal violet staining based analysis; assay type: functional
Staphylococcus aureus [28] = assay: Antibacterial activity against methicillin-resistant Staphylococcus aureus USA 300 (ARLG 1561) assessed as reduction in visible bacterial growth incubated for 18 to 20 hrs by CLSI based broth microdilution analysis; assay type: functional; settings: time 18-20 hrs
Staphylococcus aureus [29] = assay: Inhibition of protein synthesis in Staphylococcus aureus ATCC 25923 at 0.25 to 8 ug/ml by [3H]-I-leucine incorporation assay; assay type: functional; settings: dose 0.25-8 µg/ml
Cell membrane [30] = assay: Induction of membrane permeabilization in Staphylococcus aureus ATCC 25923 measured every 3 mins for 180 mins by sytox green dye based flow cytometry analysis; assay type: subcellular; settings: dose 0.5-4 µg/ml, DDE = dose-dependent effect
Cell membrane [31] = assay: Induction of cell membrane disruption in Staphylococcus aureus ATCC 25923 assessed as appearance of hairy protrusions at 2 ug/ml incubated for 30 mins by SEM analysis; assay type: subcellular; settings: dose 2.0 µg/ml
Staphylococcus aureus [32] = assay: as §2, with “at 1” for “at 2”, “of Nitroxoline” for “of 0.5 ug/ml Bithionol and AgNO3”, “by SEM” for “by crystal violet staining based”; assay type: functional, organism-based; settings: dose 1.0 µg/ml

Oc1ccc([C@@H]2Nc3ccc(S(F)(F)(F)(F)F)cc3[C@H]3[C@@H]4CC[C@@H](C4)[C@H]32)cc1
Activity (Enterococcus faecalis [1]): 70% | MBEC (Enterococcus faecalis [2]): 4 µg/mL | Activity (Staphylococcus aureus [3]): 100% | Activity (Staphylococcus aureus [4]): >80% | inhibition (Enterococcus faecium [5]): Active | Activity (Enterococcus faecium [6]): 70% | MBC (Staphylococcus aureus [7]): 2 µg/mL (≈ 4.79 µM) | MIC (Staphylococcus aureus [7]): 2 µg/mL (≈ 4.79 µM) | MBEC (Staphylococcus aureus [8]): 1 µg/mL | MBEC (Enterococcus faecium [9]): 4 µg/mL | Activity (Staphylococcus aureus [10]): >80% | inhibition (Enterococcus faecalis [11]): Active | MBEC (Enterococcus faecium [12]): 32 µg/mL | inhibition (Staphylococcus aureus [13]): Active | MBEC (Enterococcus faecalis [14]): 2 µg/mL | MBC (Staphylococcus aureus [15]): 2 µg/mL (≈ 4.79 µM) | MIC (Staphylococcus aureus [15]): 1 µg/mL (≈ 2.4 µM) | fractional inhibitory concentration index (FICI) (Staphylococcus aureus [16]): 0.28 | MBEC (Enterococcus faecium [17]): 1 µg/mL | MBC (Enterococcus faecalis [18]): 2 µg/mL (≈ 4.79 µM) | MIC (Enterococcus faecalis [18]): 2 µg/mL (≈ 4.79 µM) | MBC (Staphylococcus aureus [19]): 2 µg/mL (≈ 4.79 µM) | MIC (Staphylococcus aureus [19]): 2 µg/mL (≈ 4.79 µM) | MBC (Enterococcus faecalis [20]): 2 µg/mL (≈ 4.79 µM) | MIC (Enterococcus faecalis [20]): 2 µg/mL (≈ 4.79 µM) | MBC (Staphylococcus aureus [21]): 2 µg/mL (≈ 4.79 µM) | MIC (Staphylococcus aureus [21]): 2 µg/mL (≈ 4.79 µM) | Activity (Enterococcus faecium [22]): >70% | fractional inhibitory concentration index (FICI) (Enterococcus faecium [23]): 0.16 | Activity (Staphylococcus aureus [24]): Active | Activity (Cell membrane [25]): Active | inhibition (Staphylococcus aureus [26]): Active | MBEC (Staphylococcus aureus [27]): 32 µg/mL | MBC (Staphylococcus aureus [28]): 2 µg/mL (≈ 4.79 µM) | MIC (Staphylococcus aureus [28]): 2 µg/mL (≈ 4.79 µM) | inhibition (Staphylococcus aureus [29]): Active | Activity (Cell membrane [30]): Dde | Activity (Cell membrane [31]): Active | Activity (Staphylococcus aureus [32]): Active
